Values quoted from earlier work as cited in patent US10434213B2, “Controlled delivery system” (Wake Forest University Health Sciences, priority 2010, dated 2019).
In brackets after ≈: the same amount, converted by molar mass.

Columns and labels:
[1] = test system: tumor cells; details: in vitro
[2] = test system: colon cancer and melanoma cancers; details: combined with interferon, in vivo
[3] = test system: bone marrow; details: White and Olden 1991
[4] = test system: IL-1, IL-2, TNF, GM-CSF and interferons; details: Newton 1989; Olden 1991
[5] = test system: S. aureus 29213; details: reported value

| Minimum inhibitory concentration (MIC) [5] [mg/L] | SMILES | B- and T-cell immunity, natural killer T-cell and macrophage-induced destruction of tumor cells [1] | Anti-tumor activity [2] | Bone marrow proliferation [3] | Production of multiple cytokines [4] |
| --- | --- | --- | --- | --- | --- |
|  | O[C@H]1[C@H]2[C@H](O)CCCN2C[C@H]1O [Swainsonine] | induces | direct anti-tumor activity | capacity to stimulate bone marrow proliferation | stimulates |
| 0.25 (≈ 0.754 µM) | O=C(O)c1cn(C2CC2)c2cc(N3CCNCC3)c(F)cc2c1=O [ciprofloxacin] |  |  |  |  |
